In this assay the target is PIK3CA (human) (UniProt P42336). In words: Assessment of PI3KCA Kinase Activity.
PIK3CA (human), sequence (P42336 whole entry, looked up): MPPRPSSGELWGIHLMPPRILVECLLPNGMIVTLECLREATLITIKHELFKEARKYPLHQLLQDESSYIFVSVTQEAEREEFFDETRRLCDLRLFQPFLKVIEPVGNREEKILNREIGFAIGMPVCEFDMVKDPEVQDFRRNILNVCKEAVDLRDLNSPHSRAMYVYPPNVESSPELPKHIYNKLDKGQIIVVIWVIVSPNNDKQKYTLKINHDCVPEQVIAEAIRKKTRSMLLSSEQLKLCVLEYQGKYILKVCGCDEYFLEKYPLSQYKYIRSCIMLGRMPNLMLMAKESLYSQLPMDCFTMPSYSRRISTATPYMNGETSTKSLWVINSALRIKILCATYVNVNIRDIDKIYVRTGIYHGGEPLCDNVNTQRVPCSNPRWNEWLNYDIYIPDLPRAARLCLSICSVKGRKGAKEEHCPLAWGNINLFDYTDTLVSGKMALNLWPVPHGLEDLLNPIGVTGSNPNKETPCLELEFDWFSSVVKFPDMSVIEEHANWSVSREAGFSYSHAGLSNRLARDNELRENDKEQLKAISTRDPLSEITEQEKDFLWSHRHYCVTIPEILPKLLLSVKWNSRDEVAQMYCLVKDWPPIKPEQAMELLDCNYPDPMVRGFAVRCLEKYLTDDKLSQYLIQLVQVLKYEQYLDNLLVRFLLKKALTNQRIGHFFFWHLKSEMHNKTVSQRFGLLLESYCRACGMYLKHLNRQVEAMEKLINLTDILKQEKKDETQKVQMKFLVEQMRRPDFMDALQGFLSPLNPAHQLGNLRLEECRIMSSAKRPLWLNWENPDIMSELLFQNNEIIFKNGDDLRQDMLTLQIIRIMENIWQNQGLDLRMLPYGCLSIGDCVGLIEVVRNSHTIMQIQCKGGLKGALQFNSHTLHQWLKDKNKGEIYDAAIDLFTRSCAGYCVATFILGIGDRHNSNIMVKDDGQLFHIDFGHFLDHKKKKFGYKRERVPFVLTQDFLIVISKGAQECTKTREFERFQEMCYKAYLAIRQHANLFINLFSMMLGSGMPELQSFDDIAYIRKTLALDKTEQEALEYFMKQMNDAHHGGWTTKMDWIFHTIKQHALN
In general, IC50 refers to the concentration at which inhibition is half-maximal. Turning to `CC(=O)Nc1cc(-c2nc(-c3ccc4c(c3)OCO4)c(-c3ncc[nH]3)s2)ccn1`, the IC50 was less than 100 nM.
As for `COCCCNc1cc(-c2sc(-c3nnc[nH]3)c(-c3ccc(Cl)cc3Cl)c2C#N)ccn1`, the IC50 fell in the range of 100 to 1000 nM.
The same measure for `N#Cc1c(-c2ccnc(NC(=O)c3ccncc3)c2)sc(-c2nnc[nH]2)c1-c1ccc(Cl)cc1Cl`: 100 to 1000 nM; for `N#Cc1c(-c2nc(N)ncc2Cl)sc(-c2nnc[nH]2)c1-c1ccc(Cl)cc1Cl`: 100 to 1000 nM.
The same measure for `c1ccc(-c2nc(-c3cnn4ccccc34)sc2-c2nnc[nH]2)cc1`: 100 to 1000 nM; for `Cc1nn2ccccc2c1-c1nc(-c2ccccc2F)c(-c2nnc[nH]2)s1`: less than 100 nM; for `CC(=O)Nc1cc(-c2nc(-c3ccc(Cl)cc3)c(-c3ncc[nH]3)s2)ccn1`: 100 to 1000 nM.
`COCCNc1cc(-c2sc(-c3nnc[nH]3)c(-c3ccc(Cl)cc3Cl)c2C#N)ccn1` yielded an IC50 of 100 to 1000 nM.
In turn, `Cc1nn2ccccc2c1-c1nc(-c2cccc(F)c2)c(-c2nnc[nH]2)s1` registered an IC50 of less than 100 nM.
Regarding `CC(=O)Nc1cc(-c2sc(-c3nnc[nH]3)c(-c3ccc(Cl)cc3Cl)c2C#N)c(F)cn1`, the half-inhibitory concentration (IC50) is 100 to 1000 nM.
Next, `Cc1nn2ccccc2c1-c1nc(C2CCCCC2)c(-c2nnc[nH]2)s1`: less than 100 nM; `N#Cc1c(-c2ccnc(N)c2)sc(-c2ccn[nH]2)c1-c1ccc(Cl)cc1Cl`: 100 to 1000 nM; `CC(=O)Nc1cc(-c2nc(-c3ccc(Oc4ccccc4)cc3)c(-c3ncc[nH]3)s2)ccn1`: 100 to 1000 nM.
Next, `CC(=O)Nc1cc(-c2cc(-c3ccc(Cl)cc3Cl)c(-c3ncc[nH]3)s2)ncn1`: less than 100 nM; `COc1ccc(-c2nc(-c3ccnc(NC(C)=O)c3)sc2-c2ncc[nH]2)c(Cl)c1`: less than 100 nM; `Cc1nc2ccc(CN(C)CCN)cn2c1-c1nc(-c2ccccc2)c(-c2nnc[nH]2)s1`: less than 100 nM.
For `Cc1nn(C)c(C)c1-c1nc(-c2c(C)nn3ccccc23)sc1-c1nc[nH]n1`, the IC50 is less than 100 nM.
Compound `Cc1nn2ccsc2c1-c1nc(-c2ccccc2)c(-c2nccs2)s1` displayed an IC50 of less than 100 nM.
As for `CC(=O)Nc1cc(-c2nc(-c3ccccc3Cl)c(-c3ncc[nH]3)s2)ccn1`, the half-maximal inhibitory concentration (IC50) was less than 100 nM.
Next, `Cc1nn2ccc(O)cc2c1-c1nc(-c2ccccc2)c(-c2nnc[nH]2)s1`: less than 100 nM; `Nc1cc(-c2cc(-c3ccc(Cl)cc3Cl)c(-c3ncc[nH]3)s2)ccn1`: less than 100 nM.
In turn, `CC(=O)Nc1nc2c(-c3cc(-c4ccc(Cl)cc4Cl)c(-c4ncc[nH]4)s3)ncnc2s1` came in with an IC50 of 100 to 1000 nM.
The same measure for `Cc1nn2ccc(OCCNC(=O)c3cn(C)cn3)cc2c1-c1nc(-c2ccccc2)c(-c2nc[nH]n2)s1`: less than 100 nM; for `COc1ccc(-c2ccc3nc(C)c(-c4nc(-c5ccccc5)c(-c5nc[nH]n5)s4)n3c2)cc1OC`: less than 100 nM; for `Cc1nn2ccc(OCCN3CCC(F)CC3)cc2c1-c1nc(-c2ccccc2)c(-c2nc[nH]n2)s1`: less than 100 nM.
The same measure for `C=CCOc1nc(-c2c(C)nn3ccccc23)sc1-c1nnc[nH]1`: less than 100 nM; for `Cc1nn2ccc(OCCCN3CCOCC3)cc2c1-c1nc(-c2ccccc2)c(-c2nc[nH]n2)s1`: less than 100 nM; for `N#Cc1c(-c2ccnc(NCCO)c2)sc(-c2nnc[nH]2)c1-c1ccc(Cl)cc1Cl`: less than 100 nM.
Next, `CCOc1nc(-c2ccnc(NC(=O)C3CCCC3)c2)sc1-c1nnc[nH]1`: 100 to 1000 nM; `C=Cc1ccc2nc(C)c(-c3nc(-c4ccccc4)c(-c4nc[nH]n4)s3)n2c1`: less than 100 nM; `CC(=O)Nc1cc(-c2nc(-c3ccc(Cl)cc3Cl)c(-c3nnc[nH]3)s2)ccn1`: less than 100 nM.
`Cc1n[nH]c(C)c1-c1nc(-c2c(C)nn3ccccc23)sc1-c1nc[nH]n1` returned an IC50 of less than 100 nM.
Regarding `COc1ccc(F)c(F)c1-c1nc(-c2c(C)nn3ccccc23)sc1-c1nc[nH]n1`, the 50% inhibitory concentration (IC50) was in the range of 100 to 1000 nM.
In turn, `Cc1nn2ccsc2c1-c1nc(-c2ccc(F)c(F)c2)c(-c2nnc[nH]2)s1` yielded an IC50 of less than 100 nM.
The same measure for `COCCCNc1nccc(-c2sc(-c3nnc[nH]3)c(-c3ccc(Cl)cc3Cl)c2C#N)n1`: less than 100 nM; for `CC(=O)Nc1cc(-c2sc(-c3nccn3Cc3cccnc3)c(-c3ccc(Cl)cc3Cl)c2C#N)ccn1`: 100 to 1000 nM; for `CC(=O)Nc1cc(-c2nc(-c3ccc(CO)cc3)c(-c3ncc[nH]3)s2)ccn1`: 100 to 1000 nM.
In the case of `N#Cc1c(-c2ccnc(NS(=O)(=O)c3ccccc3)c2)sc(-c2nnc[nH]2)c1-c1ccc(Cl)cc1Cl`, the IC50 was in the range of 100 to 1000 nM.
In turn, `Cc1nn2ccc(-c3cnn(C)c3)cc2c1-c1nc(-c2ccccc2)c(-c2nc[nH]n2)s1` showed a half-maximal inhibitory concentration (IC50) of less than 100 nM.
The compound `Cc1ccc(-c2nc(-c3c(C)nn4ccccc34)sc2-c2nc[nH]n2)o1` yielded an IC50 of less than 100 nM.
As for `Clc1ccc(-c2nc(-c3ccnc4[nH]ccc34)sc2-c2ncc[nH]2)c(Cl)c1`, the concentration for half-maximal inhibition (IC50) was less than 100 nM.
Next, `CNc1cc(-c2sc(-c3ncc[nH]3)c(-c3ccc(Cl)cc3Cl)c2C#N)ccn1`: less than 100 nM.
Consider `Nc1cc(-c2nc(-c3ccc(Cl)cc3Cl)c(-c3ncc[nH]3)s2)ccn1`, for which the IC50 was less than 100 nM.
Take `N#Cc1c(-c2cc(N)nc(F)c2)sc(-c2nnc[nH]2)c1-c1ccc(Cl)cc1Cl`: the IC50 lay in the range of 100 to 1000 nM.
Regarding `CC(=O)Nc1cc(-c2nc(-c3ccccc3)c(-c3nnc[nH]3)s2)cc(C)n1`, the IC50 lay within 100 to 1000 nM.
Compound `Cc1nn2ccccc2c1-c1nc(-c2cnc3ccccc3c2)c(-c2nc[nH]n2)s1` had an IC50 of less than 100 nM.
`CNc1cc(-c2sc(-c3nnc[nH]3)c(-c3ccc(Cl)cc3Cl)c2C#N)ccn1` gave an IC50 of less than 100 nM.
Compound `Clc1cc(-c2nc(-c3ccccc3)c(-c3nnc[nH]3)s2)ccn1` came in with an IC50 of 100 to 1000 nM.
`Cc1cccc(C)c1-c1nc(-c2c(C)nn3ccccc23)sc1-c1nc[nH]n1` had an IC50 of less than 100 nM.
On to `CCOc1nc(-c2ccnc(NC(=O)c3cccc(F)c3)c2)sc1-c1nnc[nH]1`, for which the IC50 is less than 100 nM.
As to `CCOC(=O)Nc1cc(-c2nc(OCC)c(-c3nc[nH]n3)s2)ccn1`, the IC50 was less than 100 nM.
Next, `COc1ncccc1-c1nc(-c2ccnc(NC(C)=O)c2)sc1-c1nnc[nH]1`: 100 to 1000 nM.
`N#Cc1c(-c2ccnc(N)n2)sc(-c2nnc[nH]2)c1-c1ccc(Cl)cc1Cl` displayed an IC50 of less than 100 nM.
The same measure for `CC(=O)Nc1cc(-c2nc(-c3ccc(Cl)cc3Cl)c(-c3ncc[nH]3)s2)ccn1`: less than 100 nM; for `CC(=O)Nc1cc(-c2nc(-c3ccc4nonc4c3)c(-c3ncc[nH]3)s2)ccn1`: 100 to 1000 nM.
Regarding `COC[C@H]1CCCN1CCC(=O)Nc1cc(-c2nc(-c3ccccc3)c(-c3nnc[nH]3)s2)ccn1`, the concentration for half-maximal inhibition (IC50) is less than 100 nM.
For the compound `C[C@H](O)C(=O)Nc1cc(-c2sc(-c3nnc[nH]3)c(-c3ccc(Cl)cc3Cl)c2C#N)ccn1`, the IC50 fell in the range of 100 to 1000 nM.
On to `Cc1nn2ccccc2c1-c1nc(-c2cccc3ncccc23)c(-c2nc[nH]n2)s1`, for which the IC50 fell in the range of 100 to 1000 nM.
The same measure for `CC(=O)Nc1cc(-c2nc(-c3cc4ccccc4s3)c(-c3ncc[nH]3)s2)ccn1`: less than 100 nM; for `CC(=O)Nc1cc(-c2nc(-c3ccc(N(C)C)nc3)c(-c3ncc[nH]3)s2)ccn1`: 100 to 1000 nM; for `N#Cc1c(-c2ccnc(Nc3nccs3)c2)sc(-c2ncc[nH]2)c1-c1ccc(Cl)cc1Cl`: less than 100 nM.
Next, `COC(=O)Nc1cc(-c2cc(-c3ccc(Cl)cc3Cl)c(-c3ncc[nH]3)s2)ccn1`: less than 100 nM.
Turning to `Cc1nn2ccc(OCCN3CCC(O)CC3)cc2c1-c1nc(-c2ccccc2)c(-c2nc[nH]n2)s1`, the IC50 was less than 100 nM.
As to `Cc1nn2ccc(OCc3ccccc3)cc2c1-c1nc(-c2ccccc2)c(-c2nnc[nH]2)s1`, the IC50 is less than 100 nM.
As to `CC(C)CC(=O)Nc1cc(-c2sc(-c3ncc[nH]3)c(-c3ccc(Cl)cc3Cl)c2C#N)ccn1`, the IC50 was less than 100 nM.
The same measure for `COc1cccc(F)c1-c1nc(-c2c(C)nn3ccc(OCCN4CCN(C)CC4)cc23)sc1-c1nc[nH]n1`: less than 100 nM.
The same measure for `Cc1nn2ccc(OCCO)cc2c1-c1nc(-c2ccccc2)c(-c2nnc[nH]2)s1`: less than 100 nM; for `Cc1nc2ccc(C3CCCCC3)cn2c1-c1nc(-c2ccccc2)c(-c2nc[nH]n2)s1`: 100 to 1000 nM.
In turn, `COCC(=O)Nc1cc(-c2sc(-c3nnc[nH]3)c(-c3ccc(Cl)cc3Cl)c2C#N)ccn1` registered an IC50 of less than 100 nM.
`CCOc1nc(-c2ccnc(NC(=O)COc3ccccc3)c2)sc1-c1nnc[nH]1` showed an IC50 of 100 to 1000 nM.
Next, `Cc1nn2ccc(OCCN3CCNC(=O)C3)cc2c1-c1nc(-c2ccccc2)c(-c2nc[nH]n2)s1`: less than 100 nM.
`CC(=O)Nc1cc(-c2nc(-c3cccc(Cl)c3)c(-c3ncc[nH]3)s2)ccn1` had an IC50 of 100 to 1000 nM.
Consider `CC(=O)Nc1cc(-c2nc(NC(C)=O)c(-c3ncc[nH]3)s2)ccn1`, for which the IC50 was in the range of 100 to 1000 nM.
Next, `N=C(N)Nc1cc(-c2cc(-c3ccc(Cl)cc3Cl)c(-c3ncc[nH]3)s2)ccn1`: 100 to 1000 nM.
`Cc1nn2ccccc2c1-c1nc(-c2ccc(CN)cc2)c(-c2nc[nH]n2)s1` gave an IC50 of 100 to 1000 nM.
For `CC(=O)Nc1cc(-c2sc(-c3nnc(Br)[nH]3)c(-c3ccc(Cl)cc3Cl)c2C#N)ccn1`, the IC50 was less than 100 nM.
`N#Cc1c(-c2ccnc(NC(=O)CO)c2)sc(-c2nnc[nH]2)c1-c1ccc(Cl)cc1Cl`: the IC50 is less than 100 nM.
In turn, `Cc1nn2ccc(OCCN3CCOCC3)cc2c1-c1nc(-c2ccccc2)c(-c2nnc[nH]2)s1` had an IC50 of less than 100 nM.
In turn, `Cc1nc2ccc(CCCN)cn2c1-c1nc(-c2ccccc2)c(-c2nnc[nH]2)s1` yielded an IC50 of less than 100 nM.
The same measure for `N#Cc1c(-c2ccnc(N)c2)sc(-c2nnc[nH]2)c1-c1ccc(Cl)cc1Cl`: less than 100 nM.
`Cc1nn2ccc(OCCN3CCCCC3)cc2c1-c1nc(-c2ccccc2F)c(-c2nc[nH]n2)s1` returned an IC50 of less than 100 nM.
Consider `N#Cc1c(-c2cc(N)ncn2)sc(C(N)=O)c1-c1ccc(Cl)cc1Cl`, for which the IC50 fell in the range of 100 to 1000 nM.
`CC(=O)Nc1cc(-c2nc(-c3ccc(C(=O)N4CCNCC4)cc3)c(-c3ncc[nH]3)s2)ccn1` had a half-inhibitory concentration (IC50) of 100 to 1000 nM.
Take `Cc1nn2ccc(N3CCOCC3)cc2c1-c1nc(-c2ccccc2)c(-c2nc[nH]n2)s1`: the IC50 was less than 100 nM.
`Cc1nn2ccccc2c1-c1nc(-c2ccccc2N)c(-c2nc[nH]n2)s1` displayed an IC50 of less than 100 nM.

Source of the values: the Kinase Knowledgebase extract (Sharma et al. 2016).
